ChEMBL document CHEMBL1150131, “New cytotoxic bis 5-alkylresorcinol derivatives from the leaves of Oncostemon bojerianum from the Madagascar rainforest” (J Nat Prod, 2002)
Values after ≈ are worked out from the molar mass of the structure shown.

The compounds below were run on A2780 (assay: Cytotoxicity against human A2780 cells).
Type: functional, cell-based

| SMILES | IC50 [µg/mL] |
| --- | --- |
| Oc1cc(O)cc(CCCCCCC/C=C\CCCCCCCc2cc(O)cc(O)c2)c1 | 10.2 (≈ 23.1 µM) |
| Oc1cc(O)cc(CCCCC/C=C\CCCCCCCc2cc(O)cc(O)c2)c1 | 9.8 (≈ 23.8 µM) |
| CC(=O)Oc1cc(O)cc(CCCCCCC/C=C\CCCCCCCc2cc(O)cc(OC(C)=O)c2)c1 [ONCOSTEMONOL A] | 9.4 (≈ 17.9 µM) |
| CC(=O)Oc1cc(O)cc(CCCCCCC/C=C\CCCCCCCc2cc(O)cc(O)c2)c1 [ONCOSTEMONOL B] | 10.2 (≈ 21.1 µM) |
| COc1cc(O)cc(CCCCCCC/C=C\CCCCCCCc2cc(O)cc(OC)c2)c1 [ONCOSTEMONOL C] | 9.8 (≈ 20.9 µM) |
| COc1cc(O)cc(CCCCCCC/C=C\CCCCCCCc2cc(O)cc(O)c2)c1 [ONCOSTEMONOL D] | 10 (≈ 22 µM) |
| COc1cc(O)cc(CCCCCCC/C=C\CCCCCCCc2cc(OC)cc(OC)c2)c1 [ONCOSTEMONOL E] | 9.8 (≈ 20.3 µM) |
| CC(=O)Oc1cc(O)cc(CCCCCCCCCCCCCCCCc2cc(O)cc(OC(C)=O)c2)c1 [ONCOSTEMONOL F] | 9.5 (≈ 18 µM) |
| Oc1cc(O)cc(CCCCCCCCC/C=C\CCCCCCCCCc2cc(O)cc(O)c2)c1 [ONCOSTEMONOL G] | 10.2 (≈ 20.5 µM) |
| Oc1cc(O)cc(CCCCCCC/C=C\CCCCCCCCCc2cc(O)cc(O)c2)c1 [ONCOSTEMONOL H] | 9.4 (≈ 20.1 µM) |
